Measurements as given in patent publication US7858319B2, “Method of screening for drug hypersensitivity reaction” (SmithKline Beecham Corporation, priority 2001, dated 2010).
Counter-ions that a name gives are not always drawn.

Experiments:
[1] = tested on: TNFα gene; assay: Retrospective case-control study of abacavir hypersensitivity: TNFα polymorphisms (5′ nuclease assay); assay type: in vivo, human
Text: Control subjects were matched for study (if possible) ethnicity, gender, CD4+ cell count (if available; four CD4+ ranges: <50, 50-200, 201-500, >500 cells/mm3); and age (plus or minus 5 years).
The presence of the TNFα G(−237A) polymorphism may be determined using a fluorescent dye and quenching agent-based PCR assay, such as the allele discrimination form of the 5′ nuclease assay (Lee and Bloch, Nucleic Acids Research 21:3761 (1993)). In brief, this assay uses two allele specific probes labeled differentially with fluorescent “reporter” dyes at the 5′ ends and with a common quenching agent at the 3′ ends. Normally the fluorescence of each reporter dye is quenched by the quenching agent when present in the same oligonucleotide molecule. The allele specific probes are used in conjunction with two primers, one of which hybridizes to the template 5′ of allele specific probes while the other hybridizes to the template 3′ of the such probes.
The presence of the TNFα G(−237)A polymorphisms was determined by the method of allelic discrimination using the 5′-nuclease assay. Two allele specific probes labeled with a different fluorescent dye at the 5′ ends, but with a common quenching agent at the 3′ ends, were used:
The two allele specific probes were designed using specialized computer software as is known in the art, such that certain properties (melting temperature, GC content, position of the polymorphic base, location within the amplicon) were matched as far as possible, only allowing complete hybridisation to the template DNA when the allele specific polymorphic base was present.
The allele specific probes were used in conjunction with two primers, one of which hybridized to the template 5′ of the two allele-specific probes, whilst the other hybridized to the template 3′ of the two probes:
If the allele corresponding to one of the specific probes was present, the specific probe hybridized perfectly to the target sequence derived from the template. The thermostable polymerase, extending the primer in a 5′ to 3′ direction toward the allele specific probe, then removed the nucleotides from the specific probe, releasing both the fluorescent dye and the quenching agent.
At the end of the thermal cycling PCR, the ABI PRISM™ 7700 sequence detection system was used to measure the increase in the fluorescence from each specific dye directly in PCR reaction vessels. The information from the reactions was then analyzed. If an individual was homozygous for a particular allele, fluorescence corresponding only to the dye from that specific probe was released, but if the individual was heterozygous, then fluorescence from both dyes increased.
(§1) Informed consent was obtained. Subjects were classified as either ‘case’ or ‘control’. The following criteria were used to identify cases: • 1.
(§2) Blood samples were collected into appropriate blood collection tubes.

[2] = tested on: HLA-B57 and TNFα-237; assay: Retrospective case-control study of abacavir hypersensitivity: HLA-B57 and TNFα-237 association; assay type: in vivo, human
Text: as §1, §2
All but two cases of hypersensitivity reactions with the TNFα-238A allele were also HLA-B57 positive; five cases of hypersensitivity that were HLA-B57 positive lacked the TNFα-238A allele.

[3] = tested on: MICA; assay: Retrospective case-control study of abacavir hypersensitivity: MICA polymorphisms; details: Table 12
[4] = MICA (exon 2) RS1063630, A1 = T
[5] = MICA (exon 2) RS1063630, A2 = G
[6] = MICA (exon 3) RS1051792, A1 = G
[7] = MICA (exon 3) RS1051792, A2 = A
[8] = MICA (−9, 263) RS1052416, A1 = A
[9] = MICA (−9, 263) RS1052416, A2 = G

## Nc1nc(NC2CC2)c2ncn([C@H]3C=C[C@@H](CO)C3)c2n1 [abacavir, (cis)-4-[2-amino-6-(cyclopropylamino)-9H-purin-9-yl]-2-cyclopentene-1-methanol sulfate (salt) (2:1)]
[1]; TNFα (−237) RS361525, A2 = A, Table 12
  HSR cases carrying marker, %: 43%
[1]; TNFα G(−237)A 1,1 (G/G), Table 4, Cases N = 44
  HSR cases carrying marker, %: 50%
[1]; TNFα G(−237)A 1,1 (G/G), Table 4, Controls N = 76
  Controls carrying marker, %: 93%
[1]; TNFα G(−237)A 1,1 (G/G), Table 8 cumulative, Cases N = 57
  HSR cases carrying marker, %: 56%
[1]; TNFα G(−237)A 1,1 (G/G), Table 8 cumulative, Controls N = 99
  Controls carrying marker, %: 93%
[1]; TNFα G(−237)A 1,2 (G/A), Table 4, Cases N = 44
  HSR cases carrying marker, %: 45%
[1]; TNFα G(−237)A 1,2 (G/A), Table 4, Controls N = 76
  Controls carrying marker, %: 5%
[1]; TNFα G(−237)A 1,2 (G/A), Table 8 cumulative, Cases N = 57
  HSR cases carrying marker, %: 40%
[1]; TNFα G(−237)A 1,2 (G/A), Table 8 cumulative, Controls N = 99
  Controls carrying marker, %: 6 (6%)
[1]; TNFα G(−237)A 2,2 (A/A), Table 4, Cases N = 44
  HSR cases carrying marker, %: 5%
[1]; TNFα G(−237)A 2,2 (A/A), Table 4, Controls N = 76
  Controls carrying marker, %: 1 (1%)
[1]; TNFα G(−237)A 2,2 (A/A), Table 8 cumulative, Cases N = 57
  HSR cases carrying marker, %: 4%
[1]; TNFα G(−237)A 2,2 (A/A), Table 8 cumulative, Controls N = 99
  Controls carrying marker, %: 1 (1%)
[2]; TNFα-237 A Allele, subjects with HLA-B57 present, Controls N 3
  Controls carrying marker, %: 33%
[2]; TNFα-237 A Allele, subjects with HLA-B57 present, HSR Cases N 28
  HSR cases carrying marker, %: 82%
[2]; TNFα-237 A Allele, subjects without HLA-B57, Controls N 96
  Controls carrying marker, %: 5 (5) %
[2]; TNFα-237 A Allele, subjects without HLA-B57, HSR Cases N 30
  HSR cases carrying marker, %: 7%
[2]; TNFα-237 Without A Allele, subjects with HLA-B57 present, Controls N 3
  Controls carrying marker, %: 67%
[2]; TNFα-237 Without A Allele, subjects with HLA-B57 present, HSR Cases N 28
  HSR cases carrying marker, %: 18%
[2]; TNFα-237 Without A Allele, subjects without HLA-B57, Controls N 96
  Controls carrying marker, %: 95%
[2]; TNFα-237 Without A Allele, subjects without HLA-B57, HSR Cases N 30
  HSR cases carrying marker, %: 93%
[3]; [4]
  Controls carrying marker, %: 96%
  HSR cases carrying marker, %: 83%
[3]; [5]
  Controls carrying marker, %: 48%
  HSR cases carrying marker, %: 67%
[3]; [6]
  Controls carrying marker, %: 90%
  HSR cases carrying marker, %: 77%
[3]; [7]
  Controls carrying marker, %: 58%
  HSR cases carrying marker, %: 82%
[3]; [8]
  Controls carrying marker, %: 70%
  HSR cases carrying marker, %: 92%
[3]; [9]
  Controls carrying marker, %: 72%
  HSR cases carrying marker, %: 37%
